Laboratory results reported in patent publication US20110319362A1, “STAT3 LIGANDS AND THERAPEUTIC USES THEREOF” (priority 2008, published 2011).
Like-named read-outs stand apart in the source and are kept apart here.

Tests used:
[1] = tested on: MDA-MB-231 cancer cell line; assay: Cell growth assay (WST-8); assay type: cell-based; settings: Homo sapiens, MDA-MB-231, 96 h; WST-8, 4 days; read-out: Inhibition of cell growth IC50, MDA-MB-231 cancer cell line
Protocol: (§1) The effect of STAT3 compounds on cell growth was evaluated by a WST-8 [2-(2-methoxy-4-nitrophenyl)-3-(4-nitrophenyl)-5-(2,4-disulfophenyl)-2H-tetrazolium, monosodium salt assay (Dojindo Molecular Technologies, Inc). Cells (3000-4000 cells in each well) were cultured in 96-well tissue culture plates in medium (200 μL) containing various concentrations of STAT3 compounds for 4 days. At the end of incubation, WST-8 dye (20 μL) was added to each well and incubated for an additional 1-3 h, and then the absorbance was measured in a microplate reader (Molecular Devices) at 450 nm. Cell growth inhibition was evaluated as the ratio of the absorbance of the sample to that of the control.

[2] = tested on: MDA-MB-468 cancer cell line; assay: Cell growth assay (WST-8); assay type: cell-based; settings: Homo sapiens, MDA-MB-468, 96 h; WST-8, 4 days; read-out: Inhibition of cell growth IC50, MDA-MB-468 cancer cell line
Protocol: as §1

STAT3 protein = target: T1, STAT3 protein (Homo sapiens, UniProt P40763); assay: In vitro competitive STAT3 binding assay (fluorescence polarization)
T1 construct: human STAT3 protein (residues 122-722) fused to His-tag; His-tag
T1 sequence (P40763 122-722): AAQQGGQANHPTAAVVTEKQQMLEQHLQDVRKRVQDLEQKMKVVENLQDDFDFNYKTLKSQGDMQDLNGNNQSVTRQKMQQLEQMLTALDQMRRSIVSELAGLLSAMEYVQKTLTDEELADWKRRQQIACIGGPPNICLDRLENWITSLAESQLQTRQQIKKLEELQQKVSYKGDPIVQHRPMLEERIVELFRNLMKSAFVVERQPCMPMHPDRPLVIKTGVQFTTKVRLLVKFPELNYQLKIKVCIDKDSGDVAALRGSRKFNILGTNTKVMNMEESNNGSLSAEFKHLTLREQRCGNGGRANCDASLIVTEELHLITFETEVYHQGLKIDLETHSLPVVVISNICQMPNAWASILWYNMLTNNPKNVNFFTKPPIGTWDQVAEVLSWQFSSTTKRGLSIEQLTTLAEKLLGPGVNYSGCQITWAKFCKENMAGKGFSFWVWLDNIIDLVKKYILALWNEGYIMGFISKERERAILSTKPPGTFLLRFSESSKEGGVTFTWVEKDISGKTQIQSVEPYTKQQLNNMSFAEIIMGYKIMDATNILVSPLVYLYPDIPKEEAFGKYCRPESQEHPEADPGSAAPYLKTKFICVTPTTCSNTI
Description: To quantitatively determine the binding affinities of STAT3 inhibitors to STAT3 protein, a sensitive and quantitative in vitro binding assay was developed based upon fluorescence polarization (FP) method. For this FP assay, 5-carboxyfluorescein (5-Fam) was coupled to a phosphopeptide (phospho-Tyr-Leu-Pro-Gln-Thr-Val-amide) with two beta-alanine and one glycine residues as the spacer between 5-Fam and the phosphopeptide to obtain 5-Fam-beta-Ala-beta-Ala-Gly-phospho-Tyr-Leu-Pro-Gln-Thr-Val-amide as the fluorescently tagged tracer, which was named as STT2 peptide. […] The recombinant human STAT3 protein (residues 122-722) fused to His-tag was stable and soluble.
Competitive binding experiments were carried out using 150 nM of STAT3 protein and 5 nM of STT2 peptide with different concentrations of a tested STAT3 inhibitor. For each experiment, two controls were included. One control contained STAT3 protein and STT2 peptide, and the second control contained STT2 peptide only. The polarization values were measured after 2-3 hours of incubation using an ULTRA READER (Tecan U.S. Inc., Research Triangle Park, N.C.). IC50 values, the inhibitor concentration at which 50% of the fluorescently tagged STT2 peptide is displaced by STAT3 inhibitors, was determined from a plot using nonlinear least-squares analysis using GRAPHPAD PRISM software (GraphPad Software, Inc., San Diego, Calif.). […]

[3] = FP competitive binding, fluorescently tagged STT2 peptide tracer, read-out: Binding affinities to STAT3 IC50

CP(=O)(O)CCCCCC(=O)N[C@H]1CCCCC2CC[C@@H](C(=O)N[C@@H](CCC(N)=O)C(=O)NCc3ccccc3)N2C1=O (stereo partly drawn)
IC50 [1]: > 100 µM
IC50 [2]: > 100 µM
IC50 (STAT3 protein; [3]): > 100 µM

CN[C@@H](Cc1ccc(OC(C(=O)O)C(=O)O)cc1)C(=O)N[C@H]1CCCCC2CC[C@@H](C(=O)N[C@@H](CCCN)C(=O)NCc3ccccc3)N2C1=O (stereo partly drawn)
IC50 [1]: > 100 µM
IC50 [2]: > 100 µM
IC50 (STAT3 protein; [3]): > 10 µM

CN[C@@H](Cc1ccc(OC(C(=O)O)C(=O)O)cc1)C(=O)N[C@H]1CCCCC2CC[C@@H](C(=O)N[C@@H](Cc3c[nH]cn3)C(=O)NCc3ccccc3)N2C1=O (stereo partly drawn)
IC50 [1]: > 100 µM
IC50 [2]: > 100 µM
IC50 (STAT3 protein; [3]): > 10 µM

CCOC(=O)C(Oc1ccc(C[C@@H](C(=O)N[C@H]2CCCCC3CC[C@@H](C(=O)N[C@@H](CCCNC(C)=O)C(=O)NCc4ccccc4)N3C2=O)N(C)C)cc1)C(=O)OCC (stereo partly drawn)
IC50 [1]: > 100 µM
IC50 [2]: > 100 µM
IC50 (STAT3 protein; [3]): > 10 µM

CCOC(=O)C(Oc1ccc(C[C@@H](C(=O)N[C@H]2CCCCC3CC[C@@H](C(=O)N[C@@H](Cc4c[nH]cn4)C(=O)NCc4ccccc4)N3C2=O)N(C)C)cc1)C(=O)OCC (stereo partly drawn)
IC50 [1]: > 100 µM
IC50 [2]: > 100 µM
IC50 (STAT3 protein; [3]): > 10 µM

CN(C)[C@@H](Cc1ccc(OC(C(=O)O)C(=O)O)cc1)C(=O)N[C@H]1CCCCC2CC[C@@H](C(=O)N[C@@H](Cc3c[nH]cn3)C(=O)NCc3ccccc3)N2C1=O (stereo partly drawn)
IC50 [1]: > 100 µM
IC50 [2]: > 100 µM
IC50 (STAT3 protein; [3]): > 10 µM

CC(=O)NCCC[C@H](NC(=O)[C@@H]1CCC2CCCC[C@H](NC(=O)[C@H](Cc3ccc(OC(C(=O)O)C(=O)O)cc3)N(C)C)C(=O)N21)C(=O)NCc1ccccc1 (stereo partly drawn)
IC50 [1]: > 100 µM
IC50 [2]: > 100 µM
IC50 (STAT3 protein; [3]): > 10 µM

CC(=O)N[C@@H](Cc1ccc(OCP(=O)(O)O)cc1)C(=O)NC1CCCC[C@H]2CC[C@@H](C(=O)N[C@@H](Cc3c[nH]cn3)C(=O)NCc3ccccc3)N2C1=O (stereo in doubt) [Example 32]
IC50 [1]: > 100 µM
IC50 [2]: > 100 µM
IC50 (STAT3 protein): < 30 µM

CN(C)[C@@H](Cc1ccc(OCP(=O)(O)O)cc1)C(=O)NC1CCCC[C@H]2CC[C@@H](C(=O)N[C@@H](Cc3c[nH]cn3)C(=O)NCc3ccccc3)N2C1=O (stereo in doubt) [Example 33]
IC50 [1]: > 100 µM
IC50 [2]: > 100 µM
IC50 (STAT3 protein; [3]): > 100 µM

CN(C)[C@@H](Cc1ccc(OCP(=O)(O)O)cc1)C(=O)NC1CCCC[C@H]2CC[C@@H](C(=O)N[C@@H](Cc3c[nH]cn3)C(=O)NCCc3ccccc3)N2C1=O (stereo in doubt) [Example 34]
IC50 [1]: > 100 µM
IC50 [2]: > 100 µM
IC50 (STAT3 protein; [3]): < 30 µM

CN[C@@H](Cc1ccc(OCP(=O)(O)O)cc1)C(=O)NC1CCCC[C@H]2CC[C@@H](C(=O)N[C@@H](Cc3c[nH]cn3)C(=O)NCc3ccccc3)N2C1=O (stereo in doubt) [Example 35]
IC50 [1]: > 100 µM
IC50 [2]: > 100 µM
IC50 (STAT3 protein; [3]): < 100 µM

CN(C)[C@@H](Cc1ccc(OP(=O)(O)O)cc1)C(=O)N[C@H]1CCCCC2CC[C@@H](C(=O)N[C@@H](CCC(N)=O)C(=O)NCc3ccccc3)N2C1=O (stereo in doubt) [Example 36]
IC50 [1]: > 100 µM
IC50 [2]: > 100 µM
IC50 (STAT3 protein; [3]): < 5 µM

CN(C)[C@@H](Cc1ccc(OP(=O)(O)O)cc1)C(=O)N[C@H]1CCCCC2CC[C@@H](C(=O)N[C@@H](Cc3c[nH]cn3)C(=O)NCc3ccccc3)N2C1=O (stereo in doubt) [Example 39]
IC50 [1]: > 100 µM
IC50 [2]: > 100 µM
IC50 (STAT3 protein; [3]): < 10 µM

CN[C@@H](Cc1ccc(OP(=O)(O)O)cc1)C(=O)N[C@H]1CCCCC2CC[C@@H](C(=O)N[C@@H](CCC(N)=O)C(=O)NCc3ccccc3)N2C1=O (stereo in doubt) [Example 40]
IC50 [1]: > 30 µM
IC50 [2]: > 100 µM
IC50 (STAT3 protein; [3]): < 1 µM

NC(=O)CC[C@H](NC(=O)[C@@H]1CCC2CCCC[C@H](NC(=O)[C@H](Cc3ccc(OP(=O)(O)O)cc3)NC(=O)OCc3ccccc3)C(=O)N21)C(=O)NCc1ccccc1 (stereo in doubt) [Example 41]
IC50 [1]: > 50 µM
IC50 [2]: > 100 µM
IC50 (STAT3 protein): < 1 µM

CC(=O)N[C@@H](Cc1ccc(OP(=O)(O)O)cc1)C(=O)N[C@H]1CCCC[C@H]2CC[C@@H](C(=O)N[C@@H](CCC(N)=O)C(=O)NCc3ccccc3)N2C1=O [Example 1]
IC50 [1]: > 20 µM
IC50 [2]: > 100 µM
IC50 (STAT3 protein; [3]): < 1 µM

NC(=O)CC[C@H](NC(=O)[C@@H]1CC[C@@H]2CCCC[C@H](NC(=O)[C@H](Cc3ccc(OP(=O)(O)O)cc3)NC(=O)CCc3ccccc3)C(=O)N21)C(=O)NCc1ccccc1 [Example 2]
IC50 [1]: > 20 µM
IC50 [2]: > 100 µM
IC50 (STAT3 protein): < 1 µM

CC(C)(C)OC(=O)CCc1ccc(CCC(=O)N[C@H]2CCCC[C@H]3CC[C@@H](C(=O)NCC[C@H](O)CO)N3C2=O)cc1 [Example 3]
IC50 [1]: > 30 µM
IC50 [2]: > 100 µM
IC50 (STAT3 protein; [3]): > 100 µM

O=C(O)CCc1ccc(CCC(=O)N[C@H]2CCCC[C@H]3CC[C@@H](C(=O)NCC[C@H](O)CO)N3C2=O)cc1 [Example 4]
IC50 [1]: > 30 µM
IC50 [2]: > 100 µM
IC50 (STAT3 protein; [3]): > 100 µM

NC(=O)CC[C@H](NC(=O)[C@@H]1CC[C@@H]2CCCC[C@H](NC(=O)CCc3ccc(CCC(=O)O)cc3)C(=O)N21)C(=O)NCc1ccccc1 [Example 5]
IC50 [1]: > 50 µM
IC50 [2]: > 100 µM
IC50 (STAT3 protein; [3]): > 100 µM

CC(=O)N[C@@H](Cc1ccc(O)cc1)C(=O)N[C@H]1CCCC[C@H]2CC[C@@H](C(=O)N[C@@H](CCC(N)=O)C(=O)NCc3ccccc3)N2C1=O [Example 6]
IC50 [1]: > 100 µM
IC50 [2]: > 100 µM
IC50 (STAT3 protein; [3]): > 100 µM

CC(=O)N[C@@H](Cc1ccc(OCC(=O)O)cc1)C(=O)N[C@H]1CCCC[C@H]2CC[C@@H](C(=O)N[C@@H](CCC(N)=O)C(=O)NCc3ccccc3)N2C1=O [Example 7]
IC50 [1]: > 100 µM
IC50 [2]: > 100 µM
IC50 (STAT3 protein; [3]): > 50 µM

C[C@H](NC(=O)[C@@H]1CC[C@@H]2CCCC[C@H](NC(=O)[C@H](Cc3ccc(OP(=O)(O)O)cc3)NC(=O)OCc3ccccc3)C(=O)N21)C(=O)NCc1ccccc1 [Example 8]
IC50 [1]: > 10 µM
IC50 [2]: > 10 µM
IC50 (STAT3 protein): > 20 µM

O=C(N[C@@H](Cc1ccc(OP(=O)(O)O)cc1)C(=O)N[C@H]1CCCC[C@H]2CC[C@@H](Cn3cc(-c4ccccc4)nn3)N2C1=O)OCc1ccccc1 [Example 9]
IC50 [1]: > 5 µM
IC50 [2]: > 5 µM
IC50 (STAT3 protein; [3]): > 20 µM

C[C@H](NC(=O)[C@@H]1CC[C@@H]2CCCC[C@H](NC(=O)[C@@H](N)Cc3ccc(OC(C(=O)O)C(=O)O)cc3)C(=O)N21)C(=O)NCc1ccccc1 [Example 10]
IC50 [1]: > 50 µM
IC50 [2]: > 100 µM
IC50 (STAT3 protein; [3]): > 100 µM

N=C(N)NCCC[C@H](NC(=O)[C@@H]1CC[C@@H]2CCCC[C@H](NC(=O)[C@H](Cc3ccc(OP(=O)(O)O)cc3)NC(=O)OCc3ccccc3)C(=O)N21)C(=O)NCc1ccccc1 [Example 11]
IC50 [1]: > 50 µM
IC50 [2]: > 100 µM
IC50 (STAT3 protein): > 5 µM

N=C(N)NCCC[C@H](NC(=O)[C@@H]1CC[C@@H]2CCCC[C@H](NC(=O)[C@@H](N)Cc3ccc(OP(=O)(O)O)cc3)C(=O)N21)C(=O)NCc1ccccc1 [Example 12]
IC50 [1]: < 50 µM
IC50 [2]: > 100 µM
IC50 (STAT3 protein; [3]): > 5 µM

CNC(=O)[C@H](CCC(N)=O)NC(=O)[C@@H]1CC[C@@H]2CCCC[C@H](NC(=O)[C@H](Cc3ccc(OP(=O)(O)O)cc3)NC(=O)OCc3ccccc3)C(=O)N21 [Example 13]
IC50 [1]: > 100 µM
IC50 [2]: > 100 µM
IC50 (STAT3 protein): < 1 µM

NCCCCNC(=O)[C@@H]1CC[C@@H]2CCCC[C@H](NC(=O)[C@H](Cc3ccc(OP(=O)(O)O)cc3)NC(=O)OCc3ccccc3)C(=O)N21 [Example 14]
IC50 [1]: > 100 µM
IC50 [2]: > 100 µM
IC50 (STAT3 protein; [3]): < 10 µM

CCCNC(=O)[C@@H]1CC[C@@H]2CCCC[C@H](NC(=O)[C@H](Cc3ccc(OP(=O)(O)O)cc3)NC(=O)OCc3ccccc3)C(=O)N21 [Example 15]
IC50 [1]: > 30 µM
IC50 [2]: > 100 µM
IC50 (STAT3 protein; [3]): < 30 µM

NC(=O)CCCNC(=O)[C@@H]1CCC2CCCC[C@H](NC(=O)[C@H](Cc3ccc(OP(=O)(O)O)cc3)NC(=O)OCc3ccccc3)C(=O)N21 (stereo partly drawn) [Example 16]
IC50 [1]: > 100 µM
IC50 [2]: > 100 µM
IC50 (STAT3 protein; [3]): < 30 µM

CNC(=O)CCCNC(=O)[C@@H]1CC[C@@H]2CCCC[C@H](NC(=O)[C@H](Cc3ccc(OP(=O)(O)O)cc3)NC(=O)OCc3ccccc3)C(=O)N21 [Example 17]
IC50 [1]: > 100 µM
IC50 [2]: > 100 µM
IC50 (STAT3 protein; [3]): < 30 µM
